Results reported in patent US20060141013A1, “Lysine mixture and apparatus and method for administering lysine” (priority 2002, published 2006).

What was measured:
[1] = test system: Feline herpesvirus type I (FHV-1); details: cats maintained on oral L-lysine; cited from earlier work
[2] = water @ 20 °C; cited from earlier work
[3] = maximum amount of L-lysine capable of being dissolved in water; assay type: physicochemical; details: water @ 20 °C
Method: Various different concentrations of L-lysine may be used in the mixture. In one embodiment, L-lysine is initially dissolved in water at a concentration of 500 mg/ml. The L-lysine/water solution is then mixed with the palatable base substance at a 1:1 ratio (i.e., 50% solution and 50% palatable base), resulting in an L-lysine concentration of 250 mg/ml. Given that the current recommended dosage of L-lysine is 250 to 1000 mg daily, two 2 ml doses may be administered daily. Alternatively, a single 4 ml dose may be administered (if the cat is willing to consume the 4 ml dose). It should be noted, however, that the underlying principles of the invention are not confined to any particular concentration of L-lysine or any particular dosage. For example, any concentration up to the maximum amount capable of being dissolved in water may be used (e.g., 64.2 gm/100 ml water @ 20 °C, or approximately 650 mg/ml). Moreover, the L-lysine solution may then be added to the palatable base at various different ratios, based on the desired L-lysine concentration and/or the desired consistency of the final mixture (e.g., 2:1, 3:1, 1:2, . . . etc).

NCCCC[C@H](N)C(=O)O [L-lysine]
severity and duration of infection if signs of the virus reoccur [1]: milder and of a shorter duration | time between ocular viral flare-ups [1]: longer period of time between ocular viral flare-ups | maximum amount capable of being dissolved in water [2]: 64.2 gm/100 ml | maximum amount capable of being dissolved in water (approximate concentration) [3]: approximately 650 mg/ml
